Assay results as given in US20250042879A1, “HETEROCYCLIC SUBSTITUTED 1,3,4-THIADIAZOLE AND PYRIDAZINE COMPOUNDS AND METHODS OF USING THE SAME” (Rgenta Therapeutics, Inc., priority 2021, published 2025).
Structures can show the parent of a compound that is named as a salt.

system: HTT; assay: Mini-gene reporter assay-HTT (firefly luciferase, exon inclusion); assay type: cell-based; details: HTT Minigene, 5 μM; read-out: % Efficacy at 5 μM
Description: Mini-gene reporter constructs for each target site were constructed by first PCR amplifying the region-of-interest including the sequence of the alternatively skipped, sequences of the immediate upstream and downstream introns, and sequences of the immediate upstream and downstream exons. Then the 3′end of the amplified sequence was ligated to a firefly luciferase reporter gene and cloned into the pcDNA3.1 vector backbone. The final reporter construct was transiently transfected into HEK293 cells using Lipofectamine 3000 transfection reagents. Compounds that can induce the inclusion of the skipped exon in the reporter construct would increase the reporter firefly luciferase activity.
Test compounds were diluted in duplicates and dispensed into an assay plate. Transient mini-gene reporter cell line stock was resuspended and dispensed into the assay plate. Assay plates were then centrifuged and incubated. A luciferase reagent (e.g. ONE-Glo firefly luciferase reagent from Promega®) was added to the assay plate and the luminescence (RLU) signals recorded. EC50 values were determined by curve fitting in Levenberg-Marquardt algorithm.

SMILES	Emax at 5 µM
COc1cc(-c2ccc(-c3ccc(C4CN(Cc5cncs5)C4)nn3)c(O)c2)cc2cn(C)nc12 [Compound 141]	25 to 75%
Cc1cn2cc(-c3ccc(-c4ccc(C5CN(Cc6c(C)n[nH]c6C)C5)nn4)c(O)c3)cc(F)c2n1 [Compound 74]	25 to 75%
Cc1cn2cc(-c3ccc(-c4ccc(C5CN(Cc6cc[nH]n6)C5)nn4)c(O)c3)cc(F)c2n1 [Compound 72]	> 750%
COc1cc(-c2ccc(-c3ccc(C4CN(C5CC6(COC(C)C6)C5)C4)nn3)c(O)c2)cc2cn(C)nc12 (stereo not drawn) [Compound 188]	25 to 75%
COc1cc(-c2ccc(-c3ccc(C4CN(Cc5ccc(O)nc5)C4)nn3)c(O)c2)cc2cn(C)nc12 [Compound 159]	25 to 75%
COc1nn(C)cc1CN1CC(c2ccc(-c3ccc(-c4cc(F)c5nc(C)cn5c4)cc3O)nn2)C1 [Compound 126]	25 to 75%
COc1cc(-c2ccc(-c3ccc(C4CN(C(C)COC(C)C)C4)nn3)c(O)c2)cc2cn(C)nc12 (stereo not drawn) [Compound 148]	25 to 75%
COc1cc(-c2ccc(-c3ccc(C4CN(Cc5cn(C(C)C)cn5)C4)nn3)c(O)c2)cc2cn(C)nc12 [Compound 191]	25 to 75%
Cc1cn2cc(-c3ccc(-c4ccc(C5CN(Cc6ccc[nH]c6=O)C5)nn4)c(O)c3)cc(F)c2n1 [Compound 121]	25 to 75%
COc1cc(-c2ccc(-c3ccc(C4CN(Cc5ocnc5C)C4)nn3)c(O)c2)cc2cn(C)nc12 [Compound 170]	< 25%
Cc1cn2cc(-c3ccc(-c4ccc(C5CN(Cc6cn(C)nc6C)C5)nn4)c(O)c3)cc(F)c2n1 [Compound 81]	25 to 75%
COc1cc(-c2ccc(-c3ccc(C4CN(CC(C)(C)C)C4)nn3)c(O)c2)cc2cn(C)nc12 [Compound 136]	> 750%
Cc1cn2cc(-c3ccc(-c4ccc(C5CN(Cc6cncnc6)C5)nn4)c(O)c3)cc(F)c2n1 [Compound 82]	25 to 75%
COc1cc(-c2ccc(-c3ccc(C4CN(C5CCCC5)C4)nn3)c(O)c2)cc2cn(C)nc12 [Compound 137]	> 750%
COc1cc(-c2ccc(-c3ccc(C4CN(CC5CCC6CC6C5)C4)nn3)c(O)c2)cc2cn(C)nc12 (stereo not drawn) [Compound 186]	25 to 75%
Cc1cn2cc(-c3ccc(-c4ccc(C5CN(C6CCOC7(CCC7)C6)C5)nn4)c(O)c3)cc(F)c2n1 (stereo not drawn) [Compound 113]	25 to 75%
COc1cc(-c2ccc(-c3ccc(C4CN(C5CC6(CCOCC6)C5)C4)nn3)c(O)c2)cc2cn(C)nc12 [Compound 171]	25 to 75%

SMILES	Emax at 5 µM
COc1cc(-c2ccc(-c3ccc(C4CN(CC5C6CCCCC65)C4)nn3)c(O)c2)cc2cn(C)nc12 (stereo not drawn) [Compound 190]	25 to 75%
COc1cc(-c2ccc(-c3ccc(C4CN(Cc5ccn(C(C)C)n5)C4)nn3)c(O)c2)cc2cn(C)nc12 [Compound 189]	< 25%
COCn1nccc1CN1CC(c2ccc(-c3ccc(-c4cc(F)c5nc(C)cn5c4)cc3O)nn2)C1 [Compound 127]	< 25%
Cc1cn2cc(-c3ccc(-c4ccc(C5CN(C6CCOCC6C)C5)nn4)c(O)c3)cc(F)c2n1 (stereo not drawn) [Compound 85]	> 750%
Cc1cn2cc(-c3ccc(-c4ccc(C5CN(C6COCCOC6)C5)nn4)c(O)c3)cc(F)c2n1 [Compound 97]	25 to 75%
Cc1cn2cc(-c3ccc(-c4ccc(C5CN(C(C)Cc6cnccn6)C5)nn4)c(O)c3)cc(F)c2n1 (stereo not drawn) [Compound 115]	25 to 75%
COc1cc(-c2ccc(-c3ccc(C4CN(C5CCCOCC5)C4)nn3)c(O)c2)cc2cn(C)nc12 (stereo not drawn) [Compound 155]	> 750%
COCCC(C)N1CC(c2ccc(-c3ccc(-c4cc(F)c5nc(C)cn5c4)cc3O)nn2)C1 (stereo not drawn) [Compound 76]	> 750%
COc1cc(-c2ccc(-c3ccc(C4CN(Cc5c(C)nn(C)c5C)C4)nn3)c(O)c2)cc2cn(C)nc12 [Compound 133]	< 25%
CCn1cnc(CN2CC(c3ccc(-c4ccc(-c5cc(F)c6nc(C)cn6c5)cc4O)nn3)C2)c1 [Compound 125]	25 to 75%
COc1cc(-c2ccc(-c3ccc(C4CN(Cc5nc(C)ccc5O)C4)nn3)c(O)c2)cc2cn(C)nc12 [Compound 149]	25 to 75%
COc1cc(-c2ccc(-c3ccc(C4CN(C5CCC(C)C5)C4)nn3)c(O)c2)cc2cn(C)nc12 (stereo not drawn) [Compound 135]	25 to 75%
Cc1cn2cc(-c3ccc(-c4ccc(C5CN(Cc6cnn(CCF)c6)C5)nn4)c(O)c3)cc(F)c2n1 [Compound 102]	> 750%
Cc1cn2cc(-c3ccc(-c4ccc(C5CN(CC6(F)CC6)C5)nn4)c(O)c3)cc(F)c2n1 [Compound 108]	> 750%
CCc1ncc(CN2CC(c3ccc(-c4ccc(-c5cc(OC)c6nn(C)cc6c5)cc4O)nn3)C2)cn1 [Compound 175]	25 to 75%
COc1cc(-c2ccc(-c3ccc(C4CN(C(C)CC5CCOC5)C4)nn3)c(O)c2)cc2cn(C)nc12 (stereo not drawn) [Compound 158]	> 750%

same assay, conditions: Homo sapiens; HTT mini-gene firefly luciferase reporter transiently transfected into HEK293 cells

SMILES	EC50
CCN1CC(c2ccc(-c3ccc(-c4cn5cc(C)nc5cn4)cc3O)nn2)C1 [Compound 43, 2-[6-(1-ethylazetidin-3-yl)pyridazin-3-yl]-5-{2-methylimidazo[1,2-a]pyrazin-6-yl}phenol]	500 to 1000 nM
Cc1cn2cc(-c3ccc(-c4ccc(C5CNC5)nn4)c(O)c3)ccc2n1 [Compound 2, 2-(6-(azetidin-3-yl)pyridazin-3-yl)-5-(2-methylimidazo[1,2-a]pyridin-6-yl)phenol]	50 to 500 nM
CCOc1cc(-c2ccc(-c3ccc(C4CN(C5CCOCC5)C4)nn3)c(O)c2)cc2cn(C)nc12 [Compound 54, 5-(7-ethoxy-2-methyl-2H-indazol-5-yl)-2-{6-[1-(oxan-4-yl)azetidin-3-yl]pyridazin-3-yl}phenol]	≥ 1000 nM
Cc1cc(-c2ccc(-c3ccc(C4CNC4)nn3)c(O)c2)cc2cn(C)nc12 [Compound 6, 2-(6-(azetidin-3-yl)pyridazin-3-yl)-5-(2,7-dimethyl-2H-indazol-5-yl)phenol hydrochloride]	500 to 1000 nM
CCN1CC(c2ccc(-c3ccc(-c4ccc5nccn5n4)cc3O)nn2)C1 [Compound 47, 2-[6-(1-ethylazetidin-3-yl)pyridazin-3-yl]-5-{imidazo[1,2-b]pyridazin-6-yl}phenol]	500 to 1000 nM
COc1cc(-c2ccc(-c3ccc(C4CN(C5CCOCC5)C4)nn3)c(O)c2)nc2cn(C)nc12 [Compound 65, 5-(7-methoxy-2-methyl-2H-pyrazolo[4,3-b]pyridin-5-yl)-2-(6-(1-(tetrahydro-2H-pyran-4-yl)azetidin-3-yl)pyridazin-3-yl)phenol hydrochloride]	≥ 1000 nM
Cc1cn2nc(-c3ccc(-c4ccc(C5CNC5)nn4)c(O)c3)ccc2n1 [Compound 31, 2-[6-(azetidin-3-yl)pyridazin-3-yl]-5-{2-methylimidazo[1,2-b]pyridazin-6-yl}phenol]	500 to 1000 nM
Cc1cn2cc(-c3ccc(-c4ccc(C5CN(C)C5)nn4)c(O)c3)cc(C)c2n1 [Compound 35, 5-{2,8-dimethylimidazo[1,2-a]pyridin-6-yl}-2-[6-(1-methylazetidin-3-yl)pyridazin-3-yl]phenol]	500 to 1000 nM
CCN1CC(c2ccc(-c3ccc(-c4cc(C)c5nn(C)cc5c4)cc3O)nn2)C1 [Compound 34, 5-(2,7-dimethyl-2H-indazol-5-yl)-2-[6-(1-ethylazetidin-3-yl)pyridazin-3-yl]phenol]	50 to 500 nM
Cc1cn2cc(-c3ccc(-c4ccc(C5CNC5)nn4)c(O)c3)ncc2n1 [Compound 33, 2-[6-(azetidin-3-yl)pyridazin-3-yl]-5-{2-methylimidazo[1,2-a]pyrazin-6-yl}phenol]	500 to 1000 nM
Cc1cn2cc(-c3ccc(-c4ccc(C5CN(C6CCOCC6)C5)nn4)c(O)c3)cc(F)c2n1 [Compound 18, 5-{8-fluoro-2-methylimidazo[1,2-a]pyridin-6-yl}-2-{6-[1-(oxan-4-yl)azetidin-3-yl]pyridazin-3-yl}phenol]	500 to 1000 nM
CCN1CC(c2ccc(-c3ccc(-c4ccc5nn(C)cc5n4)cc3O)nn2)C1 [Compound 50, 2-[6-(1-ethylazetidin-3-yl)pyridazin-3-yl]-5-{2-methyl-2H-pyrazolo[4,3-b]pyridin-5-yl}phenol]	50 to 500 nM
COc1nc(-c2ccc(-c3ccc(C4CN(C(C)C)C4)nn3)c(O)c2)cc2cn(C)nc12 [Compound 57, 5-{7-methoxy-2-methyl-2H-pyrazolo[3,4-c]pyridin-5-yl}-2-{6-[1-(propan-2-yl)azetidin-3-yl]pyridazin-3-yl}phenol]	50 to 500 nM
Cc1cn2cc(-c3cc(O)c(-c4ccc(C5CNC5)nn4)cc3F)cc(F)c2n1 [Compound 8, 2-[6-(azetidin-3-yl)pyridazin-3-yl]-4-fluoro-5-{8-fluoro-2-methylimidazo[1,2-a]pyridin-6-yl}phenol]	≥ 1000 nM
Cc1cn2nc(-c3ccc(-c4ccc(C5CN(C6CCOCC6)C5)nn4)c(O)c3)ccc2n1 [Compound 63, 5-(2-methylimidazo[1,2-b]pyridazin-6-yl)-2-(6-(1-(tetrahydro-2H-pyran-4-yl)azetidin-3-yl)pyridazin-3-yl)phenol hydrochloride]	500 to 1000 nM
Cc1cn2cc(-c3ccc(-c4ccc(C5CN(C)C5)nn4)c(O)c3)nc(C)c2n1 [Compound 20, 5-{2,8-dimethylimidazo[1,2-a]pyrazin-6-yl}-2-[6-(1-methylazetidin-3-yl)pyridazin-3-yl]phenol]	500 to 1000 nM
Cc1cn2nc(-c3ccc(-c4ccc(C5CN(C)C5)nn4)c(O)c3)cc(C)c2n1 [Compound 30, 5-{2,8-dimethylimidazo[1,2-b]pyridazin-6-yl}-2-[6-(1-methylazetidin-3-yl)pyridazin-3-yl]phenol]	≥ 1000 nM
Cc1cn2cc(-c3ccc(-c4ccc(C5CN(C)C5)nn4)c(O)c3)ncc2n1 [Compound 39, 2-[6-(1-methylazetidin-3-yl)pyridazin-3-yl]-5-{2-methylimidazo[1,2-a]pyrazin-6-yl}phenol]	50 to 500 nM
